Measured values from PubChem BioAssay (NCI).
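Method: 48-hour compound exposure of cells in 96-well plates, five concentrations, linear interpolation of endpoints. GI50 marks 50% less growth. At the TGI there is no net growth.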

Key:
Experiment in all cases: DTP human tumour cell line panel, 48 h
[1] = test system: LOX IMVI melanoma
[2] = test system: HCC-2998 colon
[3] = test system: HOP-62 NSCLC
[4] = test system: TK-10 renal
[5] = test system: CAKI-1 renal
[6] = test system: NCI/ADR-RES ovarian
[7] = test system: NCI-H522 lung
[8] = test system: SF-539 CNS
[9] = test system: T-47D breast
[10] = test system: A498 renal
[11] = test system: SK-OV-3 ovarian
[12] = test system: OVCAR-8 ovarian
[13] = test system: K-562 leukemia
[14] = test system: MDA-MB-435
[15] = test system: UO-31 renal
[16] = test system: RPMI-8226 leukemia
[17] = test system: SK-MEL-2 melanoma
[18] = test system: PC-3 prostate
[19] = test system: ACHN renal
[20] = test system: 786-0 renal
[21] = test system: IGROV1 ovarian
[22] = test system: RXF 393 renal
[23] = test system: SK-MEL-28 melanoma
[24] = test system: NCI-H460 lung
[25] = test system: HCT-116 colon
[26] = test system: DU-145 prostate
[27] = test system: EKVX NSCLC
[28] = test system: NCI-H23 lung
[29] = test system: M14 melanoma
[30] = test system: HT29 colon

CCn1c(C(=O)N(C2CC2)C2CC2)cc2c3c(ncn3C)c(Nc3cc(C)n(C)n3)nc21
TGI [1]: > 100 µM
GI50 [2]: > 100 µM
TGI [2]: > 100 µM
GI50 [3]: > 100 µM
TGI [3]: > 100 µM
GI50 [4]: > 100 µM
TGI [4]: > 100 µM
GI50 [5]: 16.8 µM
TGI [5]: > 100 µM
GI50 [6]: > 100 µM
TGI [6]: > 100 µM
GI50 [7]: > 100 µM
TGI [7]: > 100 µM
GI50 [8]: > 100 µM
TGI [8]: > 100 µM
GI50 [9]: > 100 µM
TGI [9]: > 100 µM
TGI [10]: > 100 µM
GI50 [11]: > 100 µM
TGI [11]: > 100 µM
GI50 [12]: > 100 µM
TGI [12]: > 100 µM
GI50 [13]: > 100 µM
TGI [13]: > 100 µM
GI50 [14]: > 100 µM
TGI [14]: > 100 µM
GI50 [15]: > 38.5 µM
TGI [15]: > 100 µM
GI50 [16]: > 100 µM
TGI [16]: > 100 µM
GI50 [17]: > 100 µM
TGI [17]: > 100 µM
GI50 [18]: > 100 µM
TGI [18]: > 100 µM
GI50 [19]: > 100 µM
TGI [19]: > 100 µM
GI50 [20]: > 100 µM
TGI [20]: > 100 µM
GI50 [21]: 7.62 µM
TGI [21]: > 100 µM
GI50 [22]: 2.99 µM
TGI [22]: 23.9 µM
GI50 [23]: > 100 µM
TGI [23]: > 100 µM
GI50 [24]: > 100 µM
TGI [24]: > 100 µM
GI50 [25]: > 100 µM
TGI [25]: > 100 µM
GI50 [26]: > 100 µM
TGI [26]: > 100 µM
GI50 [27]: > 100 µM
TGI [27]: > 100 µM
GI50 [28]: > 100 µM
TGI [28]: > 100 µM
GI50 [29]: > 100 µM
TGI [29]: > 100 µM
GI50 [30]: > 100 µM
TGI [30]: > 100 µM
